The assay addresses Envelope glycoprotein gp160 (Human immunodeficiency virus 1, UniProt Q6QLK5). Description: inhibitors of HIV fusion peptide binding, primary screen, biochemical, uHTS, fluorescence dequenching (AID 1986).

We go through 1 compound from ChEMBL document CHEMBL1201862, “PubChem BioAssay data set” (2004).

Active and inactive are the calls of the source. Rule as the data show it: actives have a measured IC50 and inactives only a lower limit.

Sequence of Envelope glycoprotein gp160 (Q6QLK5 whole entry, the tested form may be a part): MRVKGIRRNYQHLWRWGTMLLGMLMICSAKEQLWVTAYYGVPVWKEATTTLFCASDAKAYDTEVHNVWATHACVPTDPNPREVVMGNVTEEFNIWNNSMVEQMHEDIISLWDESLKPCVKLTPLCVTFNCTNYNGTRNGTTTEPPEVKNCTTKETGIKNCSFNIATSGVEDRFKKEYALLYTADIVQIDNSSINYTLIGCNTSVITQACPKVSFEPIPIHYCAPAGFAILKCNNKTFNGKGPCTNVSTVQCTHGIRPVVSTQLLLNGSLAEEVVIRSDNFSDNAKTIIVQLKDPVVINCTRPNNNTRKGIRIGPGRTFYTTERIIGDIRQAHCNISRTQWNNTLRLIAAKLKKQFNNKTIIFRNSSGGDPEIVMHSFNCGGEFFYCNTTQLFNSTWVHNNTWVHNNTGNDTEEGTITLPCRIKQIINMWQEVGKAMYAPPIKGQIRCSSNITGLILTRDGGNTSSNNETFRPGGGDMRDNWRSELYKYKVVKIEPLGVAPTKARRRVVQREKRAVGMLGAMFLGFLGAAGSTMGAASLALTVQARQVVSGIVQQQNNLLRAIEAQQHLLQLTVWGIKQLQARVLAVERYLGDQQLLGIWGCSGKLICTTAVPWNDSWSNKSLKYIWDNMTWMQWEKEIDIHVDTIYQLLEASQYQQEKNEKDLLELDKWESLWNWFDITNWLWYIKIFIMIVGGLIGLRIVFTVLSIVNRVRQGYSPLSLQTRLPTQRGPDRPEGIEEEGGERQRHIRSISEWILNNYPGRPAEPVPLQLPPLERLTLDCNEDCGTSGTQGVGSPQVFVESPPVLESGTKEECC

In general, IC50 refers to the concentration needed to halve the response being measured. As for `O=C(OCC1OC(n2ncc(=O)[nH]c2=O)C(OC(=O)c2ccccc2)C1OC(=O)c1ccccc1)c1ccccc1` (stereo unspecified), the IC50 is 23.8 µM (active).
